Assay results from PubChem BioAssay (NCI).
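These data come from cells grown in 96-well plates and exposed to compound for 48 hours at five concentrations. TGI: concentration producing complete growth inhibition.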

Key:
Experiment in all cases: growth of human tumour cells (NCI), 48 h
786-0 renal = tested on: 786-0 renal
A498 renal = tested on: A498 renal
A549 NSCLC = tested on: A549 NSCLC
ACHN renal = tested on: ACHN renal
CAKI-1 renal = tested on: CAKI-1 renal
CCRF-CEM leukemia = tested on: CCRF-CEM leukemia
COLO 205 colon = tested on: COLO 205 colon
DLD-1 colon = tested on: DLD-1 colon
DMS 114 small cell lung = tested on: DMS 114 small cell lung
EKVX NSCLC = tested on: EKVX NSCLC
HCC-2998 colon = tested on: HCC-2998 colon
HCT-116 colon = tested on: HCT-116 colon
HCT-15 colon = tested on: HCT-15 colon
HOP-62 NSCLC = tested on: HOP-62 NSCLC
HT29 colon = tested on: HT29 colon
IGROV1 ovarian = tested on: IGROV1 ovarian
K-562 leukemia = tested on: K-562 leukemia
KM12 colon = tested on: KM12 colon
KM20L2 colon = tested on: KM20L2 colon
LXFL 529 NSCLC = tested on: LXFL 529 NSCLC
M14 melanoma = tested on: M14 melanoma
M19-MEL melanoma = tested on: M19-MEL melanoma
MALME-3M melanoma = tested on: MALME-3M melanoma
MOLT-4 leukemia = tested on: MOLT-4 leukemia
NCI-H23 lung = tested on: NCI-H23 lung
NCI-H460 lung = tested on: NCI-H460 lung
NCI-H522 lung = tested on: NCI-H522 lung
OVCAR-3 ovarian = tested on: OVCAR-3 ovarian
OVCAR-4 ovarian = tested on: OVCAR-4 ovarian
OVCAR-5 ovarian = tested on: OVCAR-5 ovarian
OVCAR-8 ovarian = tested on: OVCAR-8 ovarian
RPMI-8226 leukemia = tested on: RPMI-8226 leukemia
SF-268 CNS = tested on: SF-268 CNS
SF-295 CNS = tested on: SF-295 CNS
SF-539 CNS = tested on: SF-539 CNS
SK-MEL-2 melanoma = tested on: SK-MEL-2 melanoma
SK-MEL-28 melanoma = tested on: SK-MEL-28 melanoma
SK-MEL-5 melanoma = tested on: SK-MEL-5 melanoma
SK-OV-3 ovarian = tested on: SK-OV-3 ovarian
SN12C renal = tested on: SN12C renal
SNB-19 CNS = tested on: SNB-19 CNS
SNB-75 CNS = tested on: SNB-75 CNS
SNB-78 CNS = tested on: SNB-78 CNS
SW-620 colon = tested on: SW-620 colon
TK-10 renal = tested on: TK-10 renal
U251 CNS = tested on: U251 CNS
UACC-257 melanoma = tested on: UACC-257 melanoma
UACC-62 melanoma = tested on: UACC-62 melanoma
UO-31 renal = tested on: UO-31 renal
XF 498 CNS = tested on: XF 498 CNS
HL-60(TB) leukemia = tested on: HL-60(TB) leukemia
HOP-18 NSCLC = tested on: HOP-18 NSCLC
HOP-92 NSCLC = tested on: HOP-92 NSCLC
LOX IMVI melanoma = tested on: LOX IMVI melanoma
NCI-H226 lung = tested on: NCI-H226 lung
RXF 393 renal = tested on: RXF 393 renal
SR leukemia = tested on: SR leukemia
DMS 273 small cell lung = tested on: DMS 273 small cell lung

COc1ccc(Cc2nccc3cc(OC)c(OC)cc23)cc1
TGI (786-0 renal): > 100 µM
TGI (A498 renal): > 100 µM
TGI (A549 NSCLC): > 100 µM
TGI (ACHN renal): > 100 µM
TGI (CAKI-1 renal): > 100 µM
TGI (CCRF-CEM leukemia): > 100 µM
TGI (COLO 205 colon): > 100 µM
TGI (DLD-1 colon): > 100 µM
TGI (DMS 114 small cell lung): > 100 µM
TGI (EKVX NSCLC): > 100 µM
TGI (HCC-2998 colon): > 100 µM
TGI (HCT-116 colon): > 100 µM
TGI (HCT-15 colon): > 100 µM
TGI (HOP-62 NSCLC): > 100 µM
TGI (HT29 colon): > 100 µM
TGI (IGROV1 ovarian): > 100 µM
TGI (K-562 leukemia): > 100 µM
TGI (KM12 colon): > 100 µM
TGI (KM20L2 colon): > 100 µM
TGI (LXFL 529 NSCLC): > 100 µM
TGI (M14 melanoma): > 100 µM
TGI (M19-MEL melanoma): > 100 µM
TGI (MALME-3M melanoma): > 100 µM
TGI (MOLT-4 leukemia): > 100 µM
TGI (NCI-H23 lung): > 100 µM
TGI (NCI-H460 lung): > 100 µM
TGI (NCI-H522 lung): > 100 µM
TGI (OVCAR-3 ovarian): > 100 µM
TGI (OVCAR-4 ovarian): > 100 µM
TGI (OVCAR-5 ovarian): > 100 µM
TGI (OVCAR-8 ovarian): > 100 µM
TGI (RPMI-8226 leukemia): > 100 µM
TGI (SF-268 CNS): > 100 µM
TGI (SF-295 CNS): > 100 µM
TGI (SF-539 CNS): > 100 µM
TGI (SK-MEL-2 melanoma): > 100 µM
TGI (SK-MEL-28 melanoma): > 100 µM
TGI (SK-MEL-5 melanoma): > 100 µM
TGI (SK-OV-3 ovarian): > 100 µM
TGI (SN12C renal): > 100 µM
TGI (SNB-19 CNS): > 100 µM
TGI (SNB-75 CNS): > 100 µM
TGI (SNB-78 CNS): > 100 µM
TGI (SW-620 colon): > 100 µM
TGI (TK-10 renal): > 100 µM
TGI (U251 CNS): > 100 µM
TGI (UACC-257 melanoma): 62.2 µM
TGI (UACC-62 melanoma): > 100 µM
TGI (UO-31 renal): 90.8 µM
TGI (XF 498 CNS): 83.6 µM

CCC1(O)C(=O)OCc2c1cc1n(c2=O)Cc2cc3cc(OC)c(OC)cc3nc2-1 (stereo not given)
TGI (786-0 renal): 54.2 µM
TGI (A498 renal): > 100 µM
TGI (A549 NSCLC): > 100 µM
TGI (ACHN renal): 37.3 µM
TGI (CCRF-CEM leukemia): > 100 µM
TGI (COLO 205 colon): > 100 µM
TGI (DMS 114 small cell lung): > 100 µM
TGI (EKVX NSCLC): > 100 µM
TGI (HCC-2998 colon): > 100 µM
TGI (HCT-116 colon): > 100 µM
TGI (HL-60(TB) leukemia): > 100 µM
TGI (HOP-18 NSCLC): > 100 µM
TGI (HOP-62 NSCLC): 8.38 µM
TGI (HOP-92 NSCLC): > 100 µM
TGI (HT29 colon): > 100 µM
TGI (IGROV1 ovarian): 67.4 µM
TGI (K-562 leukemia): > 100 µM
TGI (KM12 colon): > 100 µM
TGI (KM20L2 colon): > 100 µM
TGI (LOX IMVI melanoma): > 100 µM
TGI (LXFL 529 NSCLC): > 100 µM
TGI (M14 melanoma): > 100 µM
TGI (MALME-3M melanoma): > 100 µM
TGI (MOLT-4 leukemia): > 100 µM
TGI (NCI-H226 lung): 88.6 µM
TGI (NCI-H23 lung): > 100 µM
TGI (NCI-H460 lung): 28.5 µM
TGI (NCI-H522 lung): > 100 µM
TGI (OVCAR-3 ovarian): > 100 µM
TGI (OVCAR-4 ovarian): > 100 µM
TGI (OVCAR-5 ovarian): > 100 µM
TGI (OVCAR-8 ovarian): > 100 µM
TGI (RPMI-8226 leukemia): > 100 µM
TGI (RXF 393 renal): 71.8 µM
TGI (SF-268 CNS): > 100 µM
TGI (SF-295 CNS): > 100 µM
TGI (SF-539 CNS): 35.2 µM
TGI (SK-MEL-28 melanoma): > 100 µM
TGI (SK-MEL-5 melanoma): > 100 µM
TGI (SK-OV-3 ovarian): 89 µM
TGI (SN12C renal): 87.4 µM
TGI (SNB-19 CNS): 85.2 µM
TGI (SNB-75 CNS): 41 µM
TGI (SR leukemia): 7.68 µM
TGI (TK-10 renal): > 100 µM
TGI (U251 CNS): 35 µM
TGI (UACC-257 melanoma): > 100 µM
TGI (UO-31 renal): > 100 µM
TGI (XF 498 CNS): > 100 µM

O=C(CCC(=O)Nc1ccc(Cl)c(Cl)c1)CC(=O)c1ccc(Cl)cc1
TGI (786-0 renal): > 100 µM
TGI (A498 renal): > 100 µM
TGI (A549 NSCLC): > 100 µM
TGI (ACHN renal): > 100 µM
TGI (CAKI-1 renal): > 100 µM
TGI (CCRF-CEM leukemia): > 100 µM
TGI (COLO 205 colon): > 100 µM
TGI (DLD-1 colon): > 100 µM
TGI (DMS 114 small cell lung): > 100 µM
TGI (DMS 273 small cell lung): > 100 µM
TGI (EKVX NSCLC): > 100 µM
TGI (HCC-2998 colon): > 100 µM
TGI (HCT-116 colon): > 100 µM
TGI (HCT-15 colon): > 100 µM
TGI (HL-60(TB) leukemia): > 100 µM
TGI (HOP-18 NSCLC): > 100 µM
TGI (HOP-92 NSCLC): > 100 µM
TGI (HT29 colon): > 100 µM
TGI (IGROV1 ovarian): > 100 µM
TGI (K-562 leukemia): > 100 µM
TGI (KM12 colon): > 100 µM
TGI (KM20L2 colon): > 100 µM
TGI (LOX IMVI melanoma): > 100 µM
TGI (LXFL 529 NSCLC): > 100 µM
TGI (M14 melanoma): > 100 µM
TGI (M19-MEL melanoma): > 100 µM
TGI (MALME-3M melanoma): > 100 µM
TGI (MOLT-4 leukemia): > 100 µM
TGI (NCI-H226 lung): > 100 µM
TGI (NCI-H23 lung): > 100 µM
TGI (NCI-H460 lung): > 100 µM
TGI (NCI-H522 lung): > 100 µM
TGI (OVCAR-3 ovarian): > 100 µM
TGI (OVCAR-4 ovarian): > 100 µM
TGI (OVCAR-5 ovarian): > 100 µM
TGI (OVCAR-8 ovarian): > 100 µM
TGI (RPMI-8226 leukemia): > 100 µM
TGI (SF-268 CNS): > 100 µM
TGI (SF-295 CNS): > 100 µM
TGI (SF-539 CNS): > 100 µM
TGI (SK-MEL-2 melanoma): > 100 µM
TGI (SK-OV-3 ovarian): > 100 µM
TGI (SN12C renal): > 100 µM
TGI (SNB-19 CNS): > 100 µM
TGI (SW-620 colon): > 100 µM
TGI (TK-10 renal): > 100 µM
TGI (U251 CNS): > 100 µM
TGI (UACC-257 melanoma): > 100 µM
TGI (UACC-62 melanoma): > 100 µM
TGI (UO-31 renal): > 100 µM
TGI (XF 498 CNS): > 100 µM
